In brackets after ≈: the same amount, converted by molar mass.
Tests used:
[1] = Particle size distribution of dry powders (time-of-flight); format: physicochemical
Description: (§1) An aliquot of 0.1 g bovine insulin was dissolved in 20 ml HCl (pH=2), the solution was then titrated by 0.1 N NaOH to pH 7.4. The feed solution was then atomized using an ISCO pump by spray freezing into liquid nitrogen. The nozzle used was polyetheretherketone tubing with a diameter of 63.5 μm. The flow rate was 14 ml/min at 4000 psi. The frozen particles were collected and dried in a tray lyophilizer.
The span index is used to described the polydispersity in a given particle size distribution and is defined as (D90-D10)/D50, where D10, D50, and D90 are the respective particle size at 10, 50, 90 percent cumulative percent undersize.

Dissolution study = format: physicochemical
Excerpt: “FeSSIF” means fed state simulated intestinal fluid prepared by a recipe known in the art. This media is used to simulate gastrointestinal conditions. FeSSIF is the dissolution media that the powders produced in the following examples are dispersed into to quantitate the amount of drug dissolved as a function of time.
(§2) Ethyl acetate/water or dichloromethane/water mixtures were used to produce o/w emulsions for SFL micronization, and a tetrahydrofuran/water mixture was used to formulate the feed solutions. Micronized SFL powders were characterized by x-ray diffraction, surface area, scanning and transmission electron microscopy, contact angle and dissolution (SLS 0.75%/Tris 1.21% media).

[2] = cited from earlier work
[3] = BET specific surface area; format: physicochemical
Excerpt: The microparticles obtained were discrete and compact with almost spherical shape. […] The protein/polymer ratio has a strong effect on the entrapment efficiency and loading degree of the incorporated protein. The entrapment efficiency was high for all investigated biodegradable polymers. High polymer concentration yielded high entrapment efficiency for all observed biodegradable polymers and is illustrated at FIG. 6. Scanning Electron Micrographs (SEM) were taken of microparticles prepared by the following conditions: […] An adsorption isotherm derived by S. Brunaure, P. H. Emmett, and E.

[4] = Contact angle against dissolution media (SLS/Tris); format: physicochemical
Excerpt: as §2

[5] = Chemical stability of insulin: A-21 desamido insulin level (RP-HPLC); format: physicochemical; conditions: for percentage of A-21 desamido in the samples: stored at −4° C.
Description: as §1, with “lyophilizer. The resulting particles were highly porous. […] The SFL process decreased the level of covalent insulin dimer (Table 3). The mean particle size diameter as determined by time-of-flight measurement was 5.06 microns. SEM photographs reveal that the particle is an aggregate composed of small domains of insulin.” for “lyophilizer.”
(§3) The SFL insulin powder was prepared according to the procedure outlined in Example 1 with same formulation. The SFL insulin powder was stored at −4° C. The samples were taken out at 6, 12 and 24 weeks.
(§4) The products were characterized by different techniques. […] The median aerodynamic particle size was 5.06 μm.

[6] = Insulin aggregation: covalent insulin dimer (size exclusion HPLC); format: physicochemical; conditions: for percentage of covalent insulin dimer in the samples: stored at −4° C.
Description: as §1, with “lyophilizer. The resulting particles were highly porous. […] The SFL process decreased the level of covalent insulin dimer (Table 3). The mean particle size diameter as determined by time-of-flight measurement was 5.06 microns. SEM photographs reveal that the particle is an aggregate composed of small domains of insulin.” for “lyophilizer.”
as §3, §4

NC(=O)N1c2ccccc2C=Cc2ccccc21 [CBZ, carbamazepine]
Span Index ([1]; (D90-D10)/D50): 2.94
D10 (μm) ([1]; time-of-flight, Table 10): 15.56 μm
D50 (μm) ([1]; time-of-flight, Table 10): 39.70 μm
D90 (μm) ([1]; time-of-flight, Table 10): 132.33 μm
mean particle diameter ([1]; time-of-flight, text Example 8): 39.70 μm
CBZ dissolved in water (Dissolution study; water, within 10 minutes): about 4%
aqueous solubility [2]: 61 µg/mL (≈ 258 µM)

C#C[C@]1(O)CC[C@H]2[C@@H]3CCC4=Cc5oncc5C[C@]4(C)[C@H]3CC[C@@]21C [Danazol]
BET specific surface area ([3]; Examples 4, 5, 8): 0.52 m2/g
Specific Surface Area (m^2/g) ([3]; Table 14 and text Example 30): 0.52 m^2/g
M 10(μm) ([1]; dry powders, Table 14): 7.28 μm
M 90(μm) ([1]; dry powders, Table 14): 51.78 μm
M 50(μm) ([1]; dry powders, Table 14 and text Example 30): 23.10 μm
Average Contact Angle (S.D.) ([4]; listed as Bulk Danazol): 64.3 (1.1)^2 °
Average Contact Angle (S.D.) ([4]; listed as bulk micronized danazol): 64.3 °
danazol dissolved (Dissolution study; FeSSIF media, 60 minutes): 21%
danazol dissolved (Dissolution study; SLS 0.75%/Tris 1.21% media, 5 minutes): Approximately 53%
danazol dissolved (Dissolution study; SLS 0.75%/Tris 1.21% media, 60 minutes): about 88%

bovine insulin [Bulk insulin]
A-21 desamido insulin (percent) ([5]; Table 3): 3.03%
percentage of A-21 desamido in the samples ([5]; 12 weeks): 2.61 percentage
percentage of A-21 desamido in the samples ([5]; 24 weeks): 2.72 percentage
percentage of A-21 desamido in the samples ([5]; Initial): 2.46 percentage
Covalent Insulin Dimer (percent) ([6]; Table 3): 0.25%
percentage of covalent insulin dimer in the samples ([6]; 12 weeks): 1.18 percentage
percentage of covalent insulin dimer in the samples ([6]; 24 weeks): 1.15 percentage
percentage of covalent insulin dimer in the samples ([6]; Initial): 0.5 percentage
Mean Particle Size (μm) ([1]; Table 3): 14.24 μm

From patent US20040022861A1, “Process for production of nanoparticles and microparticles by spray freezing into liquid” (priority 2001, published 2004)
